For 17 compounds, IC50 results are on record in US8039474B2, “2,3,4,9-tetrahydro-1H-carbazole derivatives as CRTH2 receptor antagonists” (Actelion Pharmaceutical Ltd., priority 2004, dated 2011).

A word on the pIC50: it is the IC50 on a negative log10 scale, so that one unit is a factor of ten.

pIC50: −log10 of the molar value.

One assay addresses T1, hCRTH2 receptor (Homo sapiens, UniProt Q9Y5Y4).
T1 construct: expressed in transfected cells
T1 sequence (Q9Y5Y4 1-395): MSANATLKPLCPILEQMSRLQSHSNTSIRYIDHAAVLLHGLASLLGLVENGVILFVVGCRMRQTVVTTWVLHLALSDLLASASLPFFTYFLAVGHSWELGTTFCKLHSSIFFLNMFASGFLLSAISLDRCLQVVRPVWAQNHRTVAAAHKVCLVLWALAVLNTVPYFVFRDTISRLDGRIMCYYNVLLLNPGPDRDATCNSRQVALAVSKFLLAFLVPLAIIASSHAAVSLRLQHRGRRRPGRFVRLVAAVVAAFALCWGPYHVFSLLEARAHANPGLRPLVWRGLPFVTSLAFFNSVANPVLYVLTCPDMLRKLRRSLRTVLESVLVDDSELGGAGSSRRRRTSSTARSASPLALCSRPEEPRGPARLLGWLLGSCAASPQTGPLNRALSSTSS
The experiment in a line: Intracellular calcium mobilization assay (FLIPR), PGD2 challenge. The following applies: HEK-293 cells stably expressing hCRTH2; 10 nM prostaglandin D2 as agonist. In kind it is cell-based. How it is done: A functional assay with cells expressing the human CRTH2 receptor may be used to detect changes in the levels of intracellular calcium concentration following compound treatment. After addition of the compound the cells are challenged with PGD2. In a Fluorescent Imaging Plate Reader (FLIPR™, Molecular Devices, Sunnyvale, Calif.) fluorescence emission is recorded during both additions, emission peak values above base level after PGD2 addition were exported, normalized to low controls (no PGD2) and high controls (no active compound). The relative values of the remaining activity were used to determine IC50 values by curve fitting the data to a single site to a four-parameter logistic sigmoid dose response curve of the equation (A+((B−A)/(1+((C/x)^D)))).
Cells (HEK-293), stably expressing the hCRTH2 receptor under the control of the cytomegalovirus promotor from a single insertion of the expression vector pcDNA5 (Invitrogen), are grown to confluency in DMEM (low glucose, Gibco) medium supplemented with 10% fetal calf serum (both Bioconcept, Switzerland) under standard mammalian cell culture conditions (37° C. in a humidified atmosphere of 5% CO2). Cells are detached from culture dishes using a dissociation buffer (0.02% EDTA in PBS, Gibco) for 1 min, and collected by centrifugation at 200 g at rt for 5 min in assay buffer (equal parts of Hank's BSS (HBSS, Bioconcept) and DMEM (low glucose, without phenol red, Gibco)). After incubation for 45 min (37° C. and 5% CO2) in the presence of 1 μM Fluo-4 and 0.04% Pluronic F-127 (both Molecular Probes), 20 mM HEPES (Gibco) in assay buffer, the cells are washed with and resuspended in assay buffer, then seeded onto 384-well FLIPR assay plates (Greiner) at 50,000 cells in 66 μl per well, and sedimented by centrifugation.
Stock solutions of test compounds are made up at a concentration of 10 mM in DMSO, and serially diluted in assay buffer to concentrations required for inhibition dose response curves. Prostaglandin D2 (Biomol, Plymouth Meeting, Pa.) is used as an agonist.
A FLIPR384 instrument (Molecular Devices) is operated according to the manufacturer's standard instructions, adding 4 μl of test compound dissolved at 10 mM in DMSO and diluted prior to the experiment in assay buffer to obtain the desired final concentration. 10 μl of 80 nM prostaglandin D2 (Biomol, Plymouth Meeting, Pa.) in assay buffer, supplemented with 0.8% bovine serum albumin (fatty acid content<0.02%, Sigma), is then added to obtain a final concentration of 10 nM and 0.1%, respectively. Changes in fluorescence are monitored before and after the addition of test compounds at λex=488 nm and λem=540 nm. Emission peak values above base level after prostaglandin D2 addition are exported after base line subtraction. Values are normalized to high-level control (no test compound added) after subtraction of base line value (no prostaglandin D2 added). The program XL1fit 3.0 (IDBS) is used to fit the data to a single site dose response curve of the equation (A+((B−A)/(1+((C/x)^D)))) and to calculate the IC50 values.
On the technique in general: Calcium flux is commonly read through the fluorescence of an indicator in the cells.
On to `O=C(O)Cn1c2c(c3cc(F)ccc31)CC(C(=O)N1CCc3ccccc31)CC2` (single isomer, unassigned; (+)) [(+)-[3-(2,3-Dihydro-indole-1-carbonyl)-6-fluoro-1,2,3,4-tetrahydro-carbazol-9-yl]-acetic acid], for which the pIC50 is 7.55.

With `CN(C(=O)C1CCc2c(c3ccccc3n2CC(=O)O)C1)c1ccccc1C(F)(F)F` (racemic) [Example A-37, (±)-{3-[Methyl-(2-trifluoromethyl-phenyl)-carbamoyl]-1,2,3,4-tetrahydro-carbazol-9-yl}-acetic acid], the negative logarithm of the IC50 (pIC50) was 7.35. Same read-out and setting: then `O=C(O)Cn1c2c(c3cc(F)ccc31)CC(C(=O)N1CCN(c3ccc(F)cc3)CC1)CC2` (single isomer, unassigned; (-)) [(−)-{6-Fluoro-3-[4-(4-fluoro-phenyl)-piperazine-1-carbonyl]-1,2,3,4-tetrahydro-carbazol-9-yl}-acetic acid], with 6.22; and `CC1(C(=O)N(CCC#N)Cc2ccccc2)CCc2c(c3ccccc3n2CC(=O)O)C1` (racemic) [Example B-56, (±)-{3-[Benzyl-(2-cyano-ethyl)-carbamoyl]-3-methyl-1,2,3,4-tetrahydro-carbazol-9-yl}-acetic acid], with 7.44. The same measure, in the same setting: then `O=C(O)Cn1c2c(c3cc(F)ccc31)CC(C(=O)N1CCCCCCC1)CC2` (single isomer, unassigned; (+)) [(+)-[3-(Azocane-1-carbonyl)-6-fluoro-1,2,3,4-tetrahydro-carbazol-9-yl]-acetic acid], with 7.34. Same read-out and setting: then `CCC1(C(=O)N2CCc3ccccc32)CCc2c(c3ccccc3n2CC(=O)O)C1` (racemic) [Example B-22, (±)-[3-(2,3-Dihydro-indole-1-carbonyl)-3-ethyl-1,2,3,4-tetrahydro-carbazol-9-yl]-acetic acid], with 7.17. As to `CN(C(=O)C1CCc2c(c3cc([N+](=O)[O-])ccc3n2CC(=O)O)C1)c1ccccc1` (racemic) [(±)-[3-(Methyl-phenyl-carbamoyl)-6-nitro-1,2,3,4-tetrahydro-carbazol-9-yl]-acetic acid], the pIC50 was 7.96.

Regarding `CN(C(=O)C1CCc2c(c3ccccc3n2CC(=O)O)C1)C(c1ccccc1)c1ccccc1` (racemic) [Example A-42, (±)-[3-(Benzhydryl-methyl-carbamoyl)-1,2,3,4-tetrahydro-carbazol-9-yl]-acetic acid], the pIC50 is 7.77.

For `CN(C(=O)C1(C)CCc2c(c3ccccc3n2CC(=O)O)C1)c1ccccc1` (racemic) [Example B-01, (±)-[3-Methyl-3-(methyl-phenyl-carbamoyl)-1,2,3,4-tetrahydro-carbazol-9-yl]-acetic acid], the pIC50 is 7.89. For `CN(C(=O)C1(C)CCc2c(c3ccccc3n2CC(=O)O)C1)c1cccc(Cl)c1` (racemic) [Example B-10, (±)-{3-[(3-Chloro-phenyl)-methyl-carbamoyl]-3-methyl-1,2,3,4-tetrahydro-carbazol-9-yl}-acetic acid], the pIC50 is 7.70.

The next assay concerns the target T1, hCRTH2 receptor. The experiment in a line: CRTH2 membranes radioligand binding assay ({3H}-PGD2). The following applies: {3H}-PGD2 2.5 nM; membranes of HEK 293 cells expressing recombinant hCRTH2; read-out: hCRTH2 BDG IC50. How it is done:
Cells are detached from culture plates in 5 ml buffer A (5 mM Tris, 1 mM MgCl2×6 H2O, 0.1 mM PMSF, 0.1 mM phenanthroline) per plate using a police rubber and transferred into centrifugation tubes and frozen at −80° C. After thawing, the cells are centrifuged at 500 g for 5 min and then resuspended in buffer A. Cells are then fragmented by homogenization with a Polytron homogenizer for 30 s. The membrane fragments are centrifuged at 3000 g for 40 min and resuspended in membranes in buffer B (50 mM Tris, 25 mM MgCl2, 250 mM saccharose, pH 7.4) and aliquots are stored frozen.
Binding assay is performed in a total volume of 250 μl. […] For unspecific binding, PGD2 is added to the reaction mixture at 1 μM final concentration. This binding assay mix is incubated at rt for 90 min and then filtered through a GF/C filter plate. The filter is washed three times with ice cold binding buffer. Then, 40 μl per well Microscint-40 (Packard) are added and the bound radioactivity is quantified by means of Topcount (Packard).
For the compound `CCCC1(C(=O)Nc2cccc(F)c2)CCc2c(c3ccccc3n2CC(=O)O)C1` (racemic) [Example B-32, (±)-[3-(3-Fluoro-phenylcarbamoyl)-3-propyl-1,2,3,4-tetrahydro-carbazol-9-yl]-acetic acid], the pIC50 is 7.66.

As to `CN(C(=O)C1(C)CCc2c(c3ccccc3n2CC(=O)O)C1)c1ccccc1` (racemic) [Example B-01, (±)-[3-Methyl-3-(methyl-phenyl-carbamoyl)-1,2,3,4-tetrahydro-carbazol-9-yl]-acetic acid], the negative logarithm of the IC50 (pIC50) was 8.52.

Consider `CC1(C(=O)N(Cc2ccccc2)c2ccccc2)CCc2c(c3ccccc3n2CC(=O)O)C1` (racemic) [Example B-04, (±)-[3-(Benzyl-phenyl-carbamoyl)-3-methyl-1,2,3,4-tetrahydro-carbazol-9-yl]-acetic acid], for which the pIC50 is 8.52. Still for that read-out and setting: then `CC(C)N(Cc1ccccc1)C(=O)C1CCc2c(c3cc(F)ccc3n2CC(=O)O)C1` (single isomer, unassigned; (-)) [(−)-[3-(Benzyl-isopropyl-carbamoyl)-6-fluoro-1,2,3,4-tetrahydro-carbazol-9-yl]-acetic acid], with 7.17. Same read-out and setting: as for `CC1(C(=O)N(Cc2ccsc2)c2ccccc2)CCc2c(c3ccccc3n2CC(=O)O)C1` (racemic) [Example B-07, (±)-[3-Methyl-3-(phenyl-thiophen-3-ylmethyl-carbamoyl)-1,2,3,4-tetrahydro-carbazol-9-yl]-acetic acid], the figure is 8.70; as for `O=C(O)Cn1c2c(c3ccccc31)CC(C(=O)N1CCc3ccccc31)CC2` (racemic) [Example A-39, (±)-[3-(2,3-Dihydro-indole-1-carbonyl)-1,2,3,4-tetrahydro-carbazol-9-yl]-acetic acid], 8.70; as for `CN(C(=O)C1(C)CCc2c(c3ccccc3n2CC(=O)O)C1)c1cccc(Cl)c1` (racemic) [Example B-10, (±)-{3-[(3-Chloro-phenyl)-methyl-carbamoyl]-3-methyl-1,2,3,4-tetrahydro-carbazol-9-yl}-acetic acid], 9.00.

As for `CC1(C(=O)NCc2cc(F)cc(F)c2)CCc2c(c3ccccc3n2CC(=O)O)C1` (racemic) [Example B-68, (±)-[3-(3,5-Difluoro-benzylcarbamoyl)-3-methyl-1,2,3,4-tetrahydro-carbazol-9-yl]-acetic acid], the pIC50 is 7.72.

With `CC(C)N(Cc1ccccc1)C(=O)C1CCc2c(c3cc(F)ccc3n2CC(=O)O)C1` (single isomer, unassigned; (+)) [(+)-[3-(Benzyl-isopropyl-carbamoyl)-6-fluoro-1,2,3,4-tetrahydro-carbazol-9-yl]-acetic acid], the pIC50 is 8.52.
